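Assay format: 96-well plates, 48-hour exposure. TGI: total growth inhibition.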
How the values were obtained:
Test in all cases: inhibition of tumour cell growth, NCI panel, 48 h
RPMI-8226 leukemia = tested on: RPMI-8226 leukemia
UO-31 renal = tested on: UO-31 renal
NCI-H460 lung = tested on: NCI-H460 lung
MDA-MB-231 breast = tested on: MDA-MB-231 breast
SN12C renal = tested on: SN12C renal
SW-620 colon = tested on: SW-620 colon
NCI/ADR-RES ovarian = tested on: NCI/ADR-RES ovarian
SNB-75 CNS = tested on: SNB-75 CNS
OVCAR-5 ovarian = tested on: OVCAR-5 ovarian
DU-145 prostate = tested on: DU-145 prostate
HS 578T breast = tested on: HS 578T breast

Structure (SMILES): CCOC(=O)C1=NN(c2ccc(Cl)cc2)C2=CC(C)=NN(C)C(=S)N21
- TGI (RPMI-8226 leukemia): > 100 µM
- TGI (UO-31 renal): > 100 µM
- TGI (NCI-H460 lung): > 100 µM
- TGI (MDA-MB-231 breast): > 100 µM
- TGI (SN12C renal): > 100 µM
- TGI (SW-620 colon): > 100 µM
- TGI (NCI/ADR-RES ovarian): > 100 µM
- TGI (SNB-75 CNS): 94.7 µM
- TGI (OVCAR-5 ovarian): > 100 µM
- TGI (DU-145 prostate): > 100 µM
- TGI (HS 578T breast): > 100 µM
